According to patent publication US8828908B2, “Herbicidally active bicyclic 1,3-dione compounds” (Syngenta Limited, priority 2007, dated 2014):

Tests used:
Type in all cases: in vivo
[1] = system: Alopecurus myosuroides (ALOMY); assay: Example A post-emergence herbicidal glasshouse test; settings: 312 h, evaluated after 13 days, 100=total damage to plant, 0=no damage
Experimental: (§1) Seeds of a variety of test species were sown in standard soil in pots. After cultivation for one day (pre-emergence) or after 8 days cultivation (post-emergence) under controlled conditions in a glasshouse (at 24/16° C., day/night; 14 hours light; 65% humidity), the plants were sprayed with an aqueous spray solution derived from the formulation of the technical active ingredient in acetone/water (50:50) solution containing 0.5% Tween 20 (polyoxyethelyene sorbitan monolaurate, CAS RN 9005-64-5). The test plants were then grown in a glasshouse under controlled conditions in a glasshouse (at 24/16° C., day/night; 14 hours light; 65% humidity) and watered twice daily. After 13 days for pre and post-emergence, the test was evaluated (100=total damage to plant; 0=no damage to plant).
(§2) Alopecurus myosuroides (ALOMY), Avena fatua (AVEFA), Setaria faberi (SETFA), Echinochloa crus-galli (ECHCG), Solanum nigrum (SOLNI) and Amaranthus retroflexus (AMARE)

[2] = system: Amaranthus retroflexus (AMARE); assay: as above; settings: 312 h, evaluated after 13 days, 100=total damage to plant, 0=no damage
Experimental: as §1, §2

Avena fatua (AVEFA) [3] = assay: as above; settings: 312 h, evaluated after 13 days, 100=total damage to plant, 0=no damage
Experimental: as §1, §2

Setaria faberi (SETFA) [4] = assay: as above; settings: 312 h, evaluated after 13 days, 100=total damage to plant, 0=no damage
Experimental: as §1, §2

[5] = system: Echinochloa crus-galli (ECHCG); assay: as above; settings: 312 h, evaluated after 13 days, 100=total damage to plant, 0=no damage
Experimental: as §1, §2

[6] = system: Alopecurus myosuroides (ALOMY); assay: Example A pre-emergence herbicidal glasshouse test; settings: 312 h, Rate 250 g/ha, evaluated after 13 days, 100=total damage to plant, 0=no damage to plant
Experimental: as §1, §2

[7] = system: Amaranthus retroflexus (AMARE); assay: Example A pre-emergence herbicidal glasshouse test; settings: 312 h, Rate 250 g/ha, evaluated after 13 days, 100=total damage to plant, 0=no damage to plant
Experimental: as §1, §2

Avena fatua (AVEFA) [8] = assay: Example A pre-emergence herbicidal glasshouse test; settings: 312 h, Rate 250 g/ha, evaluated after 13 days, 100=total damage to plant, 0=no damage to plant
Experimental: as §1, §2

Setaria faberi (SETFA) [9] = assay: Example A pre-emergence herbicidal glasshouse test; settings: 312 h, Rate 250 g/ha, evaluated after 13 days, 100=total damage to plant, 0=no damage to plant
Experimental: as §1, §2

[10] = system: Echinochloa crus-galli (ECHCG); assay: Example A pre-emergence herbicidal glasshouse test; settings: 312 h, Rate 250 g/ha, evaluated after 13 days, 100=total damage to plant, 0=no damage to plant
Experimental: as §1, §2

SMILES | pest or weed control at 250 g/ha [1] [%] | pest or weed control at 250 g/ha [2] [%] | pest or weed control at 250 g/ha (Avena fatua (AVEFA) [3]) [%] | pest or weed control at 250 g/ha (Setaria faberi (SETFA) [4]) [%] | pest or weed control at 250 g/ha [5] [%] | pest or weed control at 250 g/ha [6] [%] | pest or weed control at 250 g/ha [7] [%] | pest or weed control at 250 g/ha (Avena fatua (AVEFA) [8]) [%] | pest or weed control at 250 g/ha (Setaria faberi (SETFA) [9]) [%] | pest or weed control at 250 g/ha [10] [%]
CCc1ccc(-c2ccc(Cl)nc2Cl)cc1C1=C(O)[C@H]2CC[C@H](C2)C1=O (single isomer, unassigned) [Compound T80] | 70 | 0 | 70 | 100 | 90 | 30 | 0 | 50 | 100 | 90
Cc1ccc(-c2ccc(Cl)nc2)cc1C1=C(O)[C@H]2CC[C@H](C2)C1=O (single isomer, unassigned) [Compound T81] | 50 | 0 | 70 | 90 | 80 | 30 | 20 | 40 | 70 | 50
CCOc1ccc(-c2ccc(Cl)cc2)cc1C1=C(O)[C@H]2CC[C@H](C2)C1=O [Compound T52] | 40 | 0 | 0 | 90 | 80 | 0 | 0 | 0 | 0 | 0
COc1ccc(-c2ccc(Cl)cc2Cl)cc1C1=C(O)[C@H]2CC[C@H](C2)C1=O [Compound T53] | 0 | 0 | 0 | 80 | 30 | 0 | 0 | 0 | 0 | 0
CCc1ccc(-c2ccc(Cl)cc2Cl)cc1C1=C(O)[C@H]2C=C[C@H](CC2)C1=O [Compound T56] | 60 | 10 | 70 | 100 | 100 | 10 | 60 | 0 | 50 | 30
CCc1ccc(-c2ccc(Cl)cc2F)cc1C1=C(O)[C@H]2C=C[C@H](CC2)C1=O [Compound T57, 3-(4′-chloro-4-ethyl-2′-fluorobiphen-3-yl)bicyclo[3.2.2]non-6-ene-2,4-dione] | 30 | 0 | 40 | 100 | 100 | 0 | 0 | 0 | 90 | 50
CCc1ccc(-c2ccc(Cl)cc2)cc1C1=C(O)C2CC(C1=O)C2(C)C (stereo not shown) [Compound T69, 3-(4′-chloro-4-ethylbiphen-3-yl)-6,6-dimethylbicyclo[3.1.1]heptane-2,4-dione] | 70 | 0 | 80 | 100 | 100 | 20 | 0 | 0 | 90 | 100
